Results as given in PMC12523303, “Multi-Fused S,N-Heterocyclic Compounds for Targeting α-Synuclein Aggregates” (Cells, 2025).
Several values for one entry are separate records, joined by “and”; a condition that tells them apart may be missing. Equal values may be shown once. Read-outs that look alike come from different tables or passages of the source.

Assays:
[1] = target: post-mortem PD brain tissue; design: method as in PMID 38354298; details: cited from earlier work
[2] = target: T1, α-synuclein (α-syn) aggregates in PD brain homogenates (Homo sapiens, UniProt P37840); design: method as in PMID 38354298; details: parent ligand, value printed in Figure 2; cited from earlier work
T1 construct: Anterior cingulate cortex tissue from a Parkinson’s disease (PD) case; tissue Banner Sun Health Research Institute (Dr. Thomas Beach); host or cells: post-mortem human PD anterior cingulate cortex homogenate

[3] = target: T2, MDR1-transfected MDCK cells (Homo sapiens, UniProt P08183); experiment: Bidirectional transport in MDR1-transfected MDCK cell monolayers; assay type: in vitro ADME; details: MDR1-MDCK
T2 construct: host or cells: MDCK cells
Experimental: (§1) MDR1-transfected MDCK cell monolayers, cultured for 5 days and obtained from the Netherlands Cancer Institute, were used for the in vitro bidirectional transport studies. Cells were maintained in Dulbecco’s Modified Eagle Medium (DMEM) supplemented with 10% fetal bovine serum (FBS) and 1% penicillin–streptomycin. They were subcultured every other day at a split ratio of 1:3 to 1:5. For transport experiments, cells were seeded onto polycarbonate Transwell® filter inserts (Millipore) in 24-well plates at a density of 500,000 cells per well. After 24 h, the medium was replaced, and the cells were cultured for an additional 4 days to allow tight junction formation before initiating the transport assays. Transport studies were performed in duplicate using a 2 μM concentration of test compound, in both apical-to-basolateral (A→B) and basolateral-to-apical (B→A) directions. The apparent permeability coefficient (P_app) was calculated using the following equation: Papp (cm/s) = (Vr/C0) (1/S) (dC/dt)
(§2) • P_app is the apparent permeability, • V_r is the volume of the receiver chamber, • C0 is the initial concentration in the donor chamber, • S is the surface area of the cell monolayer (0.7 cm^2; for a 24-well insert), • dC/dt is the rate of appearance of the compound in the receiver chamber.
(§3) The efflux ratio was calculated as: (1) Efflux ratio=Papp B−A/Papp A−B
(§4) Bioanalysis was carried out using LC-MS/MS.

MDR1 = target: T3, MDR1 (Homo sapiens, UniProt P08183); experiment: as above; assay type: in vitro ADME; details: dog; for recovery at 2 μM: MDCK-MDR1, MDR1-MDCK permeability assay; for Papp A→B at 2 μM: apical-to-basolateral, read-out: A→B apparent permeability
T3 construct: host or cells: MDCK cells
Experimental: as §1, §2, §3, §4

[4] = target: T1, α-synuclein (α-syn) aggregates in PD brain homogenates; experiment: In vitro competition (Ki) assay vs [3H]asyn-44 in PD brain homogenates; assay type: binding; details: 1 nM [3H]asyn-44
Experimental: Anterior cingulate cortex tissue from a Parkinson’s disease (PD) case was generously provided by Dr. Thomas Beach at the Banner Sun Health Research Institute in Arizona, USA. […] Preparation of the frozen blocks for binding assays followed previously established protocols.
The equilibrium inhibition constants (Ki) for the unlabelled compounds were measured against [^3H]asyn-44 using our previously reported procedure. For these assays, frozen aliquots of homogenized human brain tissue (stored at −80 °C) were used. Homogenates were prepared at 10 mg/mL in phosphate-buffered saline, then diluted with 50 mM Tris buffer (pH 7.0) to a working concentration of 1 mg/mL.
Unlabeled competitor compounds were initially dissolved in DMSO at 400 μM, then diluted with Tris buffer to 20 μM, resulting in a 5% DMSO concentration. A serial dilution series (ranging from 6 μM to 4 nM) was prepared in the same 5% DMSO/Tris buffer solution to maintain consistent solvent conditions throughout the assay.
To perform the binding assay, 50 μL of the appropriately diluted competitor solution was mixed with 50 μL of [^3H]asyn-44 (1 nM final concentration) and 800 μL of Tris buffer containing 20% ethanol and 0.1% bovine serum albumin (BSA). Then, 100 μL of the 1 mg/mL brain homogenate was added, bringing the final tissue concentration to 100 μg/mL. The reaction mixtures were incubated at room temperature for 60 min before filtration through Whatman GF/B glass fibre filters using a Brandel M-24R cell harvester (Gaithersburg, MD, USA). Filters were washed three times with 3 mL of Tris buffer containing 20% ethanol and 0.1% BSA.
After washing, retained radioactivity was measured using CytoScint-ES scintillation fluid following thorough vortexing. Specific binding was calculated by correcting for nonspecific binding (as described later), and the amount of bound radioligand was derived from the filter-associated radioactivity and the molar activity of the tritiated compound.

[5] = target: T1, α-synuclein (α-syn) aggregates in PD brain homogenates; experiment: Two point screening assay (30 nM and 300 nM) vs [3H]asyn-44 in human PD brain homogenates; assay type: binding; details: for remaining activity at 0.03 µM: 30 nM competitor; for remaining activity at 0.3 µM: 300 nM competitor
Experimental: Screening assays for the test compounds were performed at two concentrations—30 nM and 300 nM—using unlabelled competitors in human PD brain homogenates against [^3H]asyn-44 as previously described. […] Each assay was conducted in triplicate for both concentrations to ensure reproducibility and statistical reliability.

[6] = Metabolic stability in human liver microsomes; assay type: in vitro ADME; details: for % disappearance at 5 minutes relative to time zero / % disappearance at 15 minutes relative to time zero / % disappearance at 30 minutes relative to time zero / Clearance Category / remaining at 5 min, 1 μM / remaining at 0.5 h, 1 μM: human liver microsomes; for Clearance Category: as per Cyprotex Website; for half-life at 1 μM: human, pH 7.4, human liver microsomes (h-MR); for half-life at 1 μM / remaining at 5 min, 1 μM / remaining at 0.5 h, 1 μM: pooled human liver microsomes; for remaining at 5 min, 1 μM / remaining at 0.5 h, 1 μM: pH 7.4; for % disappearance at 30 minutes relative to time zero / remaining at 0.5 h, 1 μM: 30 min
Experimental: Metabolic stability assays were conducted using pooled human liver microsomes (HLMs) to evaluate the rate of in vitro metabolic degradation of the test compound. Incubations were carried out in duplicate (n = 2) at a final compound concentration of 1 μM. The protein concentration of the microsomal suspension was adjusted to 0.5 mg/mL using phosphate buffer (100 mM, pH 7.4). Reactions were initiated by the addition of NADPH (final concentration 1 mM) and incubated at 37 °C. Aliquots were taken at four time points: 0, 5, 15, and 30 min. Each reaction was quenched with ice-cold acetonitrile containing internal standard, followed by centrifugation to pellet proteins. Supernatants were analyzed using a validated LC-MS/MS method to determine the concentration of the parent compound at each time point. […] Metabolic stability was assessed by calculating the percentage of the parent compound remaining at each time point. The elimination rate constant (k), half-life (t1/2), and intrinsic clearance (CLint) were derived from the natural log-transformed concentration vs. time data, assuming first-order kinetics.

α-syn fibrils [7] = target: α-syn fibrils; design: method as in PMID 40256311; details: cited from earlier work
PD brain tissue = target: PD brain tissue; design: method as in PMID 40256311; details: cited from earlier work
DLB tissue = test system: DLB tissue; design: method as in PMID 38843838; details: cited from earlier work
α-syn fibrils [8] = target: α-syn fibrils; design: method as in PMID 37421950; details: cited from earlier work
[9] = A→B, read-out: Calculated recovery, A→B direction
[10] = B→A, read-out: Calculated recovery, B→A direction

T2 sequence (P08183 whole entry): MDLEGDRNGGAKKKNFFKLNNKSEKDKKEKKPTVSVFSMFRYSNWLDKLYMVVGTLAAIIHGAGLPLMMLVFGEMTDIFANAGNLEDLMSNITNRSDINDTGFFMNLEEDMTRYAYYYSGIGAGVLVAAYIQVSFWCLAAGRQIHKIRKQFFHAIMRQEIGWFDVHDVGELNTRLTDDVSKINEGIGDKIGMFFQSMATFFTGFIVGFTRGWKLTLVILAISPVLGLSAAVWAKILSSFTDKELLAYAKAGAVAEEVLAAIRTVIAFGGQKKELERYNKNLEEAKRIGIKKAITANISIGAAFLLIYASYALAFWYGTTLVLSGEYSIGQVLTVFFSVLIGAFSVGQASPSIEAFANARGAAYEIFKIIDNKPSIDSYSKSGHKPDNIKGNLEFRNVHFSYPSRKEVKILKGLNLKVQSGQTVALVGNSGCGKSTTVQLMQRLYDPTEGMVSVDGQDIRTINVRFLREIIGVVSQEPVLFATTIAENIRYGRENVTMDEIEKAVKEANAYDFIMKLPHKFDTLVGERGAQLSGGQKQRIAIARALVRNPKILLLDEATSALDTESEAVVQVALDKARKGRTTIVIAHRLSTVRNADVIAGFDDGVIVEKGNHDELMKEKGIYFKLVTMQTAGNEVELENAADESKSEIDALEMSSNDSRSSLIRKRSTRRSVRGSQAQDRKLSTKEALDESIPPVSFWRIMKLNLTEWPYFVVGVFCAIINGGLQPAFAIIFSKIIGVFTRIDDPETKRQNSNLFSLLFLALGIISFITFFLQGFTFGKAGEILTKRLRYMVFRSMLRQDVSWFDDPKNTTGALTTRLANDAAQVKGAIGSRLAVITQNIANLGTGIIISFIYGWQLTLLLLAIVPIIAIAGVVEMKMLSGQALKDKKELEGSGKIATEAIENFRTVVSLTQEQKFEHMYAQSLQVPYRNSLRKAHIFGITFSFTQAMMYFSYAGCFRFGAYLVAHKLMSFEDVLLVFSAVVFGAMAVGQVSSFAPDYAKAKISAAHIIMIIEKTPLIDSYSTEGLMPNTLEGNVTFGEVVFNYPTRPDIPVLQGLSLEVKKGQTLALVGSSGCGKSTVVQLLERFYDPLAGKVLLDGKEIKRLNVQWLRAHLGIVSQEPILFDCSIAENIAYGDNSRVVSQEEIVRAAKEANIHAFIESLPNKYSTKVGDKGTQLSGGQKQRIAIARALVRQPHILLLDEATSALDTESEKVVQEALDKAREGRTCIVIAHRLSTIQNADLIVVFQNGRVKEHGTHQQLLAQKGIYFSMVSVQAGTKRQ
T3 sequence (P08183 whole entry): as above

| Structure (SMILES) | Ki [4] | remaining activity at 0.03 µM [5] | remaining activity at 0.3 µM [5] | % disappearance at 5 minutes relative to time zero [6] | % disappearance at 15 minutes relative to time zero [6] | % disappearance at 30 minutes relative to time zero [6] | Clearance Category [6] | half-life at 1 μM [6] | remaining at 5 min, 1 μM [6] | remaining at 0.5 h, 1 μM [6] | other results |
| --- | --- | --- | --- | --- | --- | --- | --- | --- | --- | --- | --- |
| F[C@@H]1CCN(c2ccc(-c3ccc4sc(-c5cccnc5)cc4n3)cn2)C1 [Asyn-44] |  |  |  |  |  |  |  |  |  |  | Kd [1]: 1.85 nM; Ki [2]: 9 nM |
| C[C@H]1O[C@@H](O[C@H]2[C@@H](O)C[C@H](O[C@H]3[C@@H](O)C[C@H](O[C@H]4CC[C@@]5(C)[C@H](CC[C@@H]6[C@@H]5C[C@@H](O)[C@]5(C)[C@@H](C7=CC(=O)OC7)CC[C@]65O)C4)O[C@@H]3C)O[C@@H]2C)C[C@H](O)[C@@H]1O [Digoxin] |  |  |  |  |  |  |  |  |  |  | Efflux Category [3]: Substrate of efflux; Permeability Category [3]: Low; recovery at 2 μM (MDR1; [9]): 79.7%; recovery at 2 μM (MDR1; [10]): 108%; Papp A→B at 2 μM (MDR1; MDCK-MDR1, 2 μM): 1.65 ×10⁻⁶ cm/s |
| F[C@@H]1CCN(c2ccc(-c3ccc4sc(-c5cncs5)cc4n3)cn2)C1 [LMD-006] | 12 nM | 53% | 2% | 60.2% | 88.1% | 95.7% | High | 6.81 min | 39.6% | 4.32% |  |
| F[C@@H]1CCN(c2ccc(-n3cc4sc(-c5cccnc5)cc4n3)cn2)C1 [LMD-032] | 50 nM | 38% | 25% | 46.7% | 79.2% | 95.0% | High | 7.05 min | 53.3% | 5.02% |  |
| F[C@@H]1CCN(c2cnc(-c3csc4ccc(-c5cccnc5)nc34)cn2)C1 [LMD-044] | 9.1 nM | 38% | 4% | 54.3% | 88.3% | 96.3% | High | 6.37 min | 45.7% | 3.71% |  |
| F[C@@H]1CCN(c2cnc(-c3ccc4scc(-c5cccnc5)c4n3)cn2)C1 [LMD-045] | 13 nM and 13.3 nM | 36% | 13% | 34.7% | 65.6% | 86.5% | High | 10.5 min | 65.3% | 13.5% |  |
| F[C@@H]1CCN(c2ccc(-n3ncc4sc(-c5cncs5)cc43)cn2)C1 [LMD-046] | 12 nM and 11.8 nM | 43% | 8% | 96.6% | 97.9% |  |  |  | 3.43% |  | t1/2 ([6]; human liver microsomes (h-MR)): unstable |
| FC1CCN(c2cnc(-n3cc4sc(-c5cccnc5)cc4n3)cn2)CC1 [LMD-051] | 9.2 nM | 38% | 4% | 24.2% | 64.3% | 69.7% | High | 17 min | 75.8% | 30.3% |  |
| F[C@@H]1CCN(c2cc(-n3cc4sc(-c5cccnc5)cc4n3)ncn2)C1 [LMD-052] | 6 nM | 27% | 2% | 60.3% | 82.8% | 94.4% | High | 7.6 min | 39.7% | 5.61% |  |
| CC(C)NCC(O)COc1cccc2ccccc12 (stereo not drawn) [Propranolol] |  |  |  |  |  |  |  |  |  |  | Efflux Category [3]: Not a substrate; Permeability Category [3]: Medium; recovery at 2 μM (MDR1; [9]): 95%; recovery at 2 μM (MDR1; [10]): 116%; Papp A→B at 2 μM (MDR1; MDCK-MDR1, 2 μM): 9.28 ×10⁻⁶ cm/s; Papp B→A at 2 μM (MDR1; MDCK-MDR1, basolateral-to-apical, 2 μM, read-out: B→A apparent permeability): 8.03 ×10⁻⁶ cm/s |
| [11CH3]Oc1ccc(NC(=O)c2cnc(N3CCN(c4ccccn4)CC3)nc2N)cc1 [[^11C]M503-1619] |  |  |  |  |  |  |  |  |  |  | Ki (α-syn fibrils [7]): 6.5 nM; Kd (PD brain tissue): 1.5 nM |
| CNc1ccc(C#C/C=C/c2nc3ccc(OCC(O)C[18F])cc3s2)cn1 (stereo not drawn) [[^18F]C05-05] |  |  |  |  |  |  |  |  |  |  | IC50 (DLB tissue): 1.5 nM |
| Cc1cc2nc(/C=C/c3ccc(O)c(Br)c3)sc2cc1N(C)CCOCC[18F] [[^18F]F0502B] |  |  |  |  |  |  |  |  |  |  | Kd (α-syn fibrils [8]): 11 nM |
